Test results as given in patent US10604741B2, “Compositions and methods for enhancing virus replication” (TURNSTONE LIMITED PARTNERSHIP, priority 2013, dated 2020).

Tests used:
[1] = test system: VSVΔ51 in 786-0 cells; format: cell-based, human
[2] = test system: VSVΔ51 in 786-0 cells; format: cell-based, human; details: 24 hours

Compound | effect on FGF2-induced enhancement of virus replication [1] | FGF2-enhancement of virus replication at different MOIs [2]
CCN(CC)CCCCNc1ncc2cc(-c3cc(OC)cc(OC)c3)c(NC(=O)NC(C)(C)C)nc2n1 [PD173074] | reduces FGF2-induced enhancement of virus replication | 
FGF2: recombinant human FGF2 protein; amino acid sequence shown in SEQ ID NO: 9 |  | independent of the MOIs used
